From US20230045421A1 (priority 2018, published 2023)

Tested on: HBV rcDNA
Assay: HepDE19 assay with bDNA quantitation of HBV rcDNA
Type: cell-based, hepatitis B virus
Settings: HepDE19 assay, inhibition of formation of rcDNA; read-out: DE-19bDNA EC50
How it was run: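 HepDE19 cells (HepG2-derived, Tet-regulated HBV replication) were deprived of tetracycline and then exposed to compounds for 7 days at 37 °C in 0.5% DMSO, 8-point titration from 25 μM. rcDNA was quantified by bDNA and EC50/EC90 came from 4-parameter fits. CC50 was measured by CellTiter-Glo ATP content on replicate plates after 4 days.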

| Structure (SMILES) | EC50 [nM] |
| --- | --- |
| CCOCCN(C(=O)Nc1ccc(F)c(Cl)c1)C(C)c1cnc(OC)c2ccccc12 (single isomer, unassigned) [Compound 125, 3-(3-Chloro-4-fluorophenyl)-1-(2-ethoxyethyl)-1-(1-(1-methoxyisoquinolin-4-yl)ethyl)urea] | 20000 |
| CCOCCN(C(=O)Nc1ccc(F)c(Cl)c1)C(C)c1cnc(OC)c2ccccc12 (single isomer, unassigned) [Compound 126, 3-(3-Chloro-4-fluorophenyl)-1-(2-ethoxyethyl)-1-(1-(1-methoxyisoquinolin-4-yl)ethyl)urea] | 630 |
| CC(c1cnc(OCc2ncn(C)n2)c2ccccc12)N(C)C(=O)Nc1ccc(F)c(Cl)c1 (single isomer, unassigned) [Compound 132, 3-(3-Chloro-4-fluorophenyl)-1-methyl-1-(1-(1-((1-methyl-1H-1,2,4-triazol-3-yl)methoxy)isoquinolin-4-yl)ethyl)urea] | 60 |
| CC(c1cnc(OCc2ncn(C)n2)c2ccccc12)N(C)C(=O)Nc1ccc(F)c(Cl)c1 (single isomer, unassigned) [Compound 133, 3-(3-Chloro-4-fluorophenyl)-1-methyl-1-(1-(1-((1-methyl-1H-1,2,4-triazol-3-yl)methoxy)isoquinolin-4-yl)ethyl)urea] | 5900 |
| CC(=O)NCCN(C(=O)Nc1ccc(F)c(Cl)c1)C(C)c1c[nH]c(=O)c2ccccc12 (single isomer, unassigned) [Compound 138, N-(2-(3-(3-Chloro-4-fluorophenyl)-1-(1-(1-oxo-1,2-dihydroisoquinolin-4-yl)ethyl)ureido)ethyl)acetamide] | 19000 |
| CC(=O)NCCN(C(=O)Nc1ccc(F)c(Cl)c1)C(C)c1c[nH]c(=O)c2ccccc12 (single isomer, unassigned) [Compound 139, N-(2-(3-(3-Chloro-4-fluorophenyl)-1-(1-(1-oxo-1,2-dihydroisoquinolin-4-yl)ethyl)ureido)ethyl)acetamide] | 460 |
| CC(c1c[nH]c(=O)c2ccccc12)N(CC1CCOCC1)C(=O)Nc1ccc(F)c(Cl)c1 (single isomer, unassigned) [Compound 141, 3-(3-Chloro-4-fluorophenyl)-1-(1-(1-oxo-1,2-dihydroisoquinolin-4-yl)ethyl)-1-((tetrahydro-2H-pyran-4-yl)methyl)urea] | 3400 |
| CC(c1c[nH]c(=O)c2ccccc12)N(CC1CCOCC1)C(=O)Nc1ccc(F)c(Cl)c1 (single isomer, unassigned) [Compound 142, 3-(3-Chloro-4-fluorophenyl)-1-(1-(1-oxo-1,2-dihydroisoquinolin-4-yl)ethyl)-1-((tetrahydro-2H-pyran-4-yl)methyl)urea] | 40 |
| CC(C)CN(C(=O)Nc1ccc(F)c(Cl)c1)C(C)c1c[nH]c(=O)c2ccccc12 (single isomer, unassigned) [Compound 143, 3-(3-chloro-4-fluorophenyl)-1-isobutyl-1-(1-(1-oxo-1,2-dihydroisoquinolin-4-yl)ethyl)urea] | 850 |
| CC(C)CN(C(=O)Nc1ccc(F)c(Cl)c1)C(C)c1c[nH]c(=O)c2ccccc12 (single isomer, unassigned) [Compound 144, 3-(3-chloro-4-fluorophenyl)-1-isobutyl-1-(1-(1-oxo-1,2-dihydroisoquinolin-4-yl)ethyl)urea] | 10 |
| CC(c1cnc(OCc2nc[nH]n2)c2ccccc12)N(C)C(=O)Nc1ccc(F)c(Cl)c1 (single isomer, unassigned) [Compound 145, 1-(1-(1-((1H-1,2,4-Triazol-3-yl)methoxy)isoquinolin-4-yl)ethyl)-3-(3-chloro-4-fluorophenyl)-1-methylurea] | 4200 |
| CC(c1cnc(OCc2nc[nH]n2)c2ccccc12)N(C)C(=O)Nc1ccc(F)c(Cl)c1 (single isomer, unassigned) [Compound 146, 1-(1-(1-((1H-1,2,4-Triazol-3-yl)methoxy)isoquinolin-4-yl)ethyl)-3-(3-chloro-4-fluorophenyl)-1-methylurea] | 50 |
| CC(c1c[nH]c(=O)c2ccccc12)N(CCCCO)C(=O)Nc1ccc(F)c(Cl)c1 (single isomer, unassigned) [Compound 149, 3-(3-Chloro-4-fluorophenyl)-1-(4-hydroxybutyl)-1-(1-(1-oxo-1,2-dihydroisoquinolin-4-yl)ethyl)urea] | 3300 |
| CC(c1c[nH]c(=O)c2ccccc12)N(CCCCO)C(=O)Nc1ccc(F)c(Cl)c1 (single isomer, unassigned) [Compound 150, 3-(3-Chloro-4-fluorophenyl)-1-(4-hydroxybutyl)-1-(1-(1-oxo-1,2-dihydroisoquinolin-4-yl)ethyl)urea] | 10 |
| CCN(C(=O)Nc1ccc(F)c(Cl)c1)C(C)c1c[nH]c(=O)c2cnccc12 (single isomer, unassigned) [Compound 151, 3-(3-Chloro-4-fluorophenyl)-1-ethyl-1-(1-(1-oxo-1,2-dihydro-2,7-naphthyridin-4-yl)ethyl)urea] | 2000 |
| CCN(C(=O)Nc1ccc(F)c(Cl)c1)C(C)c1c[nH]c(=O)c2cnccc12 (single isomer, unassigned) [Compound 152, 3-(3-Chloro-4-fluorophenyl)-1-ethyl-1-(1-(1-oxo-1,2-dihydro-2,7-naphthyridin-4-yl)ethyl)urea] | 150 |
| CC(c1c[nH]c(=O)c2ccccc12)N(C[C@H]1CCCO1)C(=O)Nc1ccc(F)c(Cl)c1 (single isomer, unassigned) [Compound 155] | 7700 |
| CC(c1c[nH]c(=O)c2ccccc12)N(C[C@H]1CCCO1)C(=O)Nc1ccc(F)c(Cl)c1 (single isomer, unassigned) [Compound 156] | 170 |
| CC(c1c[nH]c(=O)c2ccccc12)N(C[C@@H]1CCCO1)C(=O)Nc1ccc(F)c(Cl)c1 (single isomer, unassigned) [Compound 160] | 23000 |
| CC(c1c[nH]c(=O)c2ccccc12)N(C[C@@H]1CCCO1)C(=O)Nc1ccc(F)c(Cl)c1 (single isomer, unassigned) [Compound 161] | 150 |
| CC(c1c[nH]c(=O)c2ccccc12)N(CCNCC(F)(F)F)C(=O)Nc1ccc(F)c(Cl)c1 (single isomer, unassigned) [Compound 162, 3-(3-Chloro-4-fluorophenyl)-1-(1-(1-oxo-1,2-dihydroisoquinolin-4-yl)ethyl)-1-(2-((2,2,2-trifluoroethyl)amino)ethyl)urea] | 580 |
| CC(c1c[nH]c(=O)c2ccccc12)N(CCNCC(F)(F)F)C(=O)Nc1ccc(F)c(Cl)c1 (single isomer, unassigned) [Compound 163, 3-(3-Chloro-4-fluorophenyl)-1-(1-(1-oxo-1,2-dihydroisoquinolin-4-yl)ethyl)-1-(2-((2,2,2-trifluoroethyl)amino)ethyl)urea] | 5300 |
| CC(c1c[nH]c(=O)c2c(Cl)cccc12)N(C)C(=O)Nc1ccc(F)c(Cl)c1 (single isomer, unassigned) [Compound 167, 1-(1-(8-Chloro-1-oxo-1,2-dihydroisoquinolin-4-yl)ethyl)-3-(3-chloro-4-fluorophenyl)-1-methylurea] | 2400 |
| CC(c1c[nH]c(=O)c2c(Cl)cccc12)N(C)C(=O)Nc1ccc(F)c(Cl)c1 (single isomer, unassigned) [Compound 168, 1-(1-(8-Chloro-1-oxo-1,2-dihydroisoquinolin-4-yl)ethyl)-3-(3-chloro-4-fluorophenyl)-1-methylurea] | 70 |
| CC(c1c[nH]c(=O)c2ccc(F)cc12)N(C)C(=O)Nc1ccc(F)c(Cl)c1 (single isomer, unassigned) [Compound 169, 3-(3-Chloro-4-fluorophenyl)-1-(1-(6-fluoro-1-oxo-1,2-dihydroisoquinolin-4-yl)ethyl)-1-methylurea] | 2100 |

Same assay, conditions: Hepatitis B virus, HepDE19, HepDE19 assay, inhibition of formation of rcDNA; read-out: DE-19bDNA EC50

| Structure (SMILES) | EC50 [nM] |
| --- | --- |
| CNC(=O)CN(C(=O)Nc1ccc(F)c(Cl)c1)C(C)c1c[nH]c(=O)c2ccccc12 (single isomer, unassigned) [Compound 129, 2-(3-(3-Chloro-4-fluorophenyl)-1-(1-(1-oxo-1,2-dihydroisoquinolin-4-yl)ethyl)ureido)-N-methylacetamide] | 530 |
| COc1ncc(C(C)N(CCCO)C(=O)Nc2ccc(F)c(Cl)c2)c2ccccc12 (single isomer, unassigned) [Compound 140, 3-(3-Chloro-4-fluorophenyl)-1-(3-hydroxypropyl)-1-(1-(1-methoxyisoquinolin-4-yl)ethyl)urea] | 230 |
| CC(c1c[nH]c(=O)c2ccccc12)N(CCCN)C(=O)Nc1ccc(F)c(Cl)c1 (single isomer, unassigned) [Compound 164, 1-(3-Aminopropyl)-3-(3-chloro-4-fluorophenyl)-1-(1-(1-oxo-1,2-dihydroisoquinolin-4-yl)ethyl)urea] | 12000 |

Same assay, conditions: read-out: DE-19bDNA EC50; HepDE19 assay, inhibition of formation of rcDNA

| Structure (SMILES) | EC50 [nM] |
| --- | --- |
| COCCOCCN(C(=O)Nc1ccc(F)c(Cl)c1)C(C)c1c[nH]c(=O)c2ccccc12 (single isomer, unassigned) [Compound 124, 3-(3-Chloro-4-fluorophenyl)-1-(2-(2-methoxyethoxy)ethyl)-1-(1-(1-oxo-1,2-dihydroisoquinolin-4-yl)ethyl)urea] | 560 |
| CC(c1c[nH]c(=O)c2ccccc12)N(CCCO)C(=O)Nc1ccc(F)c(Cl)c1 (single isomer, unassigned) [Compound 130, 3-(3-Chloro-4-fluorophenyl)-1-(3-hydroxypropyl)-1-(1-(1-oxo-1,2-dihydroisoquinolin-4-yl)ethyl)urea] | 7900 |
| CC(c1c[nH]c(=O)c2ccccc12)N(CCCO)C(=O)Nc1ccc(F)c(Cl)c1 (single isomer, unassigned) [Compound 131, 3-(3-Chloro-4-fluorophenyl)-1-(3-hydroxypropyl)-1-(1-(1-oxo-1,2-dihydroisoquinolin-4-yl)ethyl)urea] | 10 |
